Results published in publication PMC2799460 (Environmental Health Perspectives, 2009).
Like-named read-outs stand apart in the source and are kept apart here.

What was measured:
estrogen receptor (ER) = target: T1, estrogen receptor (ER) (Homo sapiens, UniProt P03372); assay: ER CALUX luciferase reporter bioassay (BG1Luc4E2/ER-α-positive cells); assay type: cell-based; conditions: for EC50: agonist, ER CALUX luciferase induction
T1 construct: endogenous in cells; host or cells: BG1Luc4E2 (human ovarian cell line per title of Rogers and Denison 2000)

CYP450 2C9 [1] = target: T2, CYP450 2C9 (Homo sapiens, UniProt P11712)
[2] = target: T3, aryl hydrocarbon receptor (AhR) (Mus musculus, UniProt P30561); assay: cell-based
T3 sequence (P30561 10-848): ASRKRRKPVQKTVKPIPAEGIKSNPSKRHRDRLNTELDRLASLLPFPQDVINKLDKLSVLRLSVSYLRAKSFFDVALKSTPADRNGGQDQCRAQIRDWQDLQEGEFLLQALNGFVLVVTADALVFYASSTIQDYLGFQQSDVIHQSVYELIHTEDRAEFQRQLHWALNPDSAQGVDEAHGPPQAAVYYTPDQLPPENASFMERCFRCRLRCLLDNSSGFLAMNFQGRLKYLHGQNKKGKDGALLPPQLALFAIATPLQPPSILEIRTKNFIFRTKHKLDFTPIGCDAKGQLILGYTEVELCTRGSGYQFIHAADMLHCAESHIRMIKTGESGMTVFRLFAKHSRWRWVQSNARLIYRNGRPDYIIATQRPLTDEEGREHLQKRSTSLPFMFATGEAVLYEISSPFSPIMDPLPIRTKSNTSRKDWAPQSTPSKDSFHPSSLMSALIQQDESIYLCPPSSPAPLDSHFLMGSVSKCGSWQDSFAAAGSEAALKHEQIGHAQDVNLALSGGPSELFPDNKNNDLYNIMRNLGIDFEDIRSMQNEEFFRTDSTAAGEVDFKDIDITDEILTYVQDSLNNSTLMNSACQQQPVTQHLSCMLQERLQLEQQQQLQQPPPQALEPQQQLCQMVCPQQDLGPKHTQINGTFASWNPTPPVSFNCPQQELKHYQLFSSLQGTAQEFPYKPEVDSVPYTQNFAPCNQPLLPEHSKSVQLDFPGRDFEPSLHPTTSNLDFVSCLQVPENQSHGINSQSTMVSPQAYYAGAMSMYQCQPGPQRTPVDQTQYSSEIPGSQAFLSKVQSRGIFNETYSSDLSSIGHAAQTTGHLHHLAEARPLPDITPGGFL

CYP450 2C9 [3] = target: T2, CYP450 2C9; assay: biochemical
[4] = target: T4, human carboxylesterase CES1 (Homo sapiens, UniProt P23141); assay: biochemical
T4 construct: made in house; host or cells: baculovirus-insect cells
T4 sequence (P23141 18-567): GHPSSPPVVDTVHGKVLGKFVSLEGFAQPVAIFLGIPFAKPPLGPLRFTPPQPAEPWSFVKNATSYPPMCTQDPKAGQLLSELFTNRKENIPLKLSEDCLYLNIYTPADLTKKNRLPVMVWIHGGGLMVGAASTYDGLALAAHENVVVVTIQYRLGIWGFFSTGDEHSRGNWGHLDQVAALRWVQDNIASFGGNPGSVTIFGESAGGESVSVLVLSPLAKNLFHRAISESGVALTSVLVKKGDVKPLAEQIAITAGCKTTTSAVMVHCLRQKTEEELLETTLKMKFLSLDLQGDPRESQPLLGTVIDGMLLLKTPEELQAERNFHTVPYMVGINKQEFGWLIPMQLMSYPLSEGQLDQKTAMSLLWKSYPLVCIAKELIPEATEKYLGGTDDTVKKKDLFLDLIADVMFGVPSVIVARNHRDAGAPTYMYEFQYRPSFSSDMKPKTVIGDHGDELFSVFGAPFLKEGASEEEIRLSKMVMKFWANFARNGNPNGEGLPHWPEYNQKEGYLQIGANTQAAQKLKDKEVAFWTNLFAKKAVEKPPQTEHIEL

[5] = target: T5, human soluble epoxide hydrolase (sEH) (Homo sapiens, UniProt P34913); assay: human sEH enzyme inhibition assay (CMNPC substrate, fluorescence kinetic); assay type: biochemical; conditions: recombinant purified enzyme, CMNPC 5 μM, counterscreen; mean ± SD
T5 construct: made in house; host or cells: baculovirus expression system
T5 sequence (P34913 1-555): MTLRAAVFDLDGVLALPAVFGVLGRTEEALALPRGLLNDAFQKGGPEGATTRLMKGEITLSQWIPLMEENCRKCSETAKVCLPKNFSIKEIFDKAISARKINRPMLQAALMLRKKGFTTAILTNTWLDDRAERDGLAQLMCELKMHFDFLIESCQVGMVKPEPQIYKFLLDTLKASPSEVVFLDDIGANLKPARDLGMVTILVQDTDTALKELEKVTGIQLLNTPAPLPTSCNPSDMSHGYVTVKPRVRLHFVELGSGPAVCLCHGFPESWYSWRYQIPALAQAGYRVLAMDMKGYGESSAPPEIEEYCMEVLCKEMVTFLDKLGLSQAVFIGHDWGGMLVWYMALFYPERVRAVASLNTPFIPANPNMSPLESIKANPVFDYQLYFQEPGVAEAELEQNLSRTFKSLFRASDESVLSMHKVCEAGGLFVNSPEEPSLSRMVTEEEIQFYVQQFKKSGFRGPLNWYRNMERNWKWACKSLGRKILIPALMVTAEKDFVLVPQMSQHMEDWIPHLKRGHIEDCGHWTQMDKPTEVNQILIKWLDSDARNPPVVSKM
Text: (§1) Recombinant human soluble epoxide hydrolase (sEH) was produced in a baculovirus expression system ([Beetham et al. 1993]) and purified by affinity chromatography ([Wixtrom et al. 1988]). […] The CESs were partially purified as previously described ([Nishi et al. 2006]), whereas microsomal preparations were used for FAAH and PON2 ([Huang et al. 2007]). Human liver cytosol and microsome extracts were obtained from BD Biosciences (San Jose, CA). Protein concentration was quantified using the Pierce BCA (bicinchoninic acid) assay (Pierce, Rockford, IL) using bovine serum albumin (BSA) as the calibrating standard.
(§2) Although the conditions for each enzyme assay were different (for details, see Table 1), the enzymatic assays were all run in a similar format. Enzymes were used at a concentration that results in linear generation of product with increasing time and protein concentration, as well as yielding a signal that was 3–20 times greater than the background. […]
(§3) For counterscreening, fresh solutions of all positive compounds were prepared in DMSO. […] IC50 values were calculated by nonlinear regression of at least five data points using SigmaPlot, version 9.01 (Systat Software Inc., Chicago, IL). […] Similarly, half-maximal effective concentration (EC50) values for agonists of the AhR and ER bioassays were determined, and the results are presented as the mean of triplicate analysis. […]

[6] = target: T6, human carboxylesterase CES3 (Homo sapiens, UniProt Q6UWW8); assay: human CES3 enzyme inhibition assay (CMNA substrate); assay type: biochemical
T6 construct: made in house; host or cells: baculovirus-insect cells
T6 sequence (Q6UWW8 27-571): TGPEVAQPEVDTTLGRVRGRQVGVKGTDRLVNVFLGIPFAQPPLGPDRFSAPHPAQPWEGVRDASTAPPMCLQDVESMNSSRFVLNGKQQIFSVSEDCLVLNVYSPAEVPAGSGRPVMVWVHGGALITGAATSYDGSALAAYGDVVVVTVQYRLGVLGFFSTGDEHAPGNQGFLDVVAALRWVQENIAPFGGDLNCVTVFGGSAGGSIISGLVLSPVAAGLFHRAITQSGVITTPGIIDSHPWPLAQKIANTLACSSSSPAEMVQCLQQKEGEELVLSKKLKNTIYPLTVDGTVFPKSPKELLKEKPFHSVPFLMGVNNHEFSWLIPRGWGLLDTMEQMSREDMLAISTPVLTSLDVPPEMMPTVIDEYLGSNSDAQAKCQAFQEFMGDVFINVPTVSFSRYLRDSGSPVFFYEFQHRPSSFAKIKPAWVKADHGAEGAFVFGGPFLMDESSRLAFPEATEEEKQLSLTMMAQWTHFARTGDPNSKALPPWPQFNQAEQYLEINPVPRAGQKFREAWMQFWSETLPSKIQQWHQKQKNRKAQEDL
Text: as §1, §2, §3

T2 sequence (P11712 whole entry): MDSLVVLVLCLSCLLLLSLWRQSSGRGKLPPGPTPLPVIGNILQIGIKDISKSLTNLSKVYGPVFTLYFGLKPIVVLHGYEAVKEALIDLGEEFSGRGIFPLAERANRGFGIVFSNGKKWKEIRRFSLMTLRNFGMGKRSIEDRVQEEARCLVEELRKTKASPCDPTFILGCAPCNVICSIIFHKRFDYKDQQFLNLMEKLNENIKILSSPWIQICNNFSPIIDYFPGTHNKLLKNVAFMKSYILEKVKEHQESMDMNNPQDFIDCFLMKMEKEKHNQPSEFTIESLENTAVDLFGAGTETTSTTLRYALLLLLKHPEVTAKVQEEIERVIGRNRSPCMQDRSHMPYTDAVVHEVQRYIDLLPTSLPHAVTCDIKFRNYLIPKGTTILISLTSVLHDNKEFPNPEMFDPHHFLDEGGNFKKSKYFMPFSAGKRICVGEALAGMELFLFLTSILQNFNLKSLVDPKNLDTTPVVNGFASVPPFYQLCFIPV
T1 sequence (P03372 whole entry): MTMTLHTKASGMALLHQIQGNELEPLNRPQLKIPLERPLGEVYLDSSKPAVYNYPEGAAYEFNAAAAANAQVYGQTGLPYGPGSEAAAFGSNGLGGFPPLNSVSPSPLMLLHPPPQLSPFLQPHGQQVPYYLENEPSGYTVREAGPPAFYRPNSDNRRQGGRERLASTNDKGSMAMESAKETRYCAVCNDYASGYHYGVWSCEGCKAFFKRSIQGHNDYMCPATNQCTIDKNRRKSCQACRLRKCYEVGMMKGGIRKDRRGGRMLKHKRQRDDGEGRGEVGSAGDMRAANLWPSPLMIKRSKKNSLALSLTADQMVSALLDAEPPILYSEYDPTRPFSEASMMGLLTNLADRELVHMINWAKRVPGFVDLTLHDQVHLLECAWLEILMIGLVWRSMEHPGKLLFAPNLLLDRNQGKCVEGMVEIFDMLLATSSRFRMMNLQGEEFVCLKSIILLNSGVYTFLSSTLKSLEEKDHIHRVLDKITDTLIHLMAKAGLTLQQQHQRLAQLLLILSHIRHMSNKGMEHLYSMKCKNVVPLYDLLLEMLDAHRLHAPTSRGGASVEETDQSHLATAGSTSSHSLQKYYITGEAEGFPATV

## ClC(Cl)=C(c1ccc(Cl)cc1)c1ccccc1Cl [o,p-DDE, dichlorodiphenyldichloroethylene]
Estrogen receptor (ER)
  EC50: 1200 nM
Estrogen receptor (ER); relative to E2
  EC50 for ER induction, fold less potent than E2: approximately 10^5 fold

## C/C=C/C(=O)Oc1c(C(C)CCCCCC)cc([N+](=O)[O-])cc1[N+](=O)[O-] (stereo not drawn) [2-Methylheptyl-4,6-dinitrophenyl crotonate]
CYP450 2C9 [1]
  IC50: 120 ± 1 nM

## O=C1C(Cl)=C(Cl)C(=O)c2ccccc21 [Dichlone, dichlone]
[2]
  EC50: > 10000 nM

## Pyrethrum
CYP450 2C9 [1]
  IC50: 2300 nM

## CCOP(=S)(OCC)Oc1nc(Cl)c(Cl)cc1Cl [Chlorpyrifos, chlorpyrifos]
CYP450 2C9 [3]
  IC50: 3200 nM

## Oc1cc(Cl)ccc1Oc1ccc(Cl)cc1Cl [Triclosan, triclosan]
[4]
  IC50: 210 ± 20 nM
  Ki: 105 ± 5 nM

## O=C(Nc1ccc(Cl)cc1)Nc1ccc(Cl)c(Cl)c1 [TCC, trichlorocarbanilide]
[5]
  IC50: 13 ± 1 nM

## O=P(Oc1ccccc1)(Oc1ccccc1)Oc1ccccc1 [TPP, triphenyl phosphate]
[4]
  IC50: 43 ± 3 nM

## ClC1=C(Cl)C2(Cl)C3C4CC(C5OC45)C3C1(Cl)C2(Cl)Cl (stereo not drawn) [Endrin]
Estrogen receptor (ER)
  EC50: 13000 nM

## CCOP(=S)(OCC)Oc1ccc([N+](=O)[O-])cc1 [Parathion, parathion]
[6]
  IC50: 4.9 ± 0.4 nM

## Clc1ccc(-c2nc3ccccc3s2)cc1 [CPB, 2-(4-chlorophenyl)-benzothiazole]
[2]
  EC50: 11400 nM

## CC1CCCCC1NC(=O)Nc1ccccc1 (stereo not drawn) [Siduron, siduron]
[5]
  IC50: 33 ± 3 nM

## CCOP(=S)(OCC)SCSc1ccc(Cl)cc1 [Carbophenothion, carbophenothion]
[6]
  IC50: 110 ± 15 nM
